Several values for one entry are separate records, joined by “and”; a condition that tells them apart may be missing. Equal values may be shown once. Toxic doses and inconclusive results are not listed.
Tested on: CD2F1 mice, L1210 leukemia ip, survival T/C
Assay: NCI In Vivo Anticancer Drug Screen. Data for tumor model L1210 Leukemia (intraperitoneal) in CD2F1 (CDF1) mice
Details: higher = longer survival
Summary of the method: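 Tumor-bearing mice (transplanted tumor) were split into treated and vehicle control groups, and the measured endpoint of each treated group was divided by that of its vehicle controls.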

[1] = endpoint: mean survival time, dose: 100.0 mg/kg/injection, schedule: Q01DX009 (ip), vehicle: saline with Tween-80
[2] = endpoint: mean survival time, dose: 100.0 mg/kg/injection, schedule: Q04DX003 (ip), vehicle: saline with Tween-80
[3] = endpoint: mean survival time, dose: 200.0 mg/kg/injection, schedule: Q04DX003 (ip), vehicle: saline with Tween-80
[4] = endpoint: mean survival time, dose: 400.0 mg/kg/injection, schedule: Q04DX003 (ip), vehicle: saline with Tween-80
[5] = endpoint: mean survival time, dose: 25.0 mg/kg/injection, schedule: Q01DX009 (ip), vehicle: saline with Tween-80
[6] = endpoint: mean survival time, dose: 50.0 mg/kg/injection, schedule: Q01DX009 (ip), vehicle: saline with Tween-80

For `Cc1cc(C)c(C(=O)c2no[n+]([O-])c2C(=O)c2c(C)cc(C)c(Br)c2C)c(C)c1Br`, the T/C [1] was 97 % of control, the T/C (endpoint: mean survival time, dose: 200.0 mg/kg/injection, schedule: Q01DX009 (ip), vehicle: saline with Tween-80) was 97 % of control and the T/C (endpoint: mean survival time, dose: 400.0 mg/kg/injection, schedule: Q01DX009 (ip), vehicle: saline with Tween-80) was 98 % of control.

With `O=c1c2ccc(Cl)cc2[nH]c(=S)n1-c1ccc(Cl)cc1` the T/C [2] was 104 % of control, the T/C [3] was 93 % of control and the T/C [4] was 102 % of control.

For `CCCCOC(=O)c1ccc(NC(=O)Nc2ccccc2)cc1`, the T/C [5] was 92 % of control, the T/C [6] was 97 % of control and the T/C [1] was 93 % of control.

For `CO[C@@]12[C@@H]3N[C@@H]3CN1C1=C(C(=O)C(NCCc3ccc(O)cc3)=C(C)C1=O)[C@@H]2COC(N)=O`, the T/C (endpoint: mean survival time, dose: 1.5 mg/kg/injection, schedule: Q01DX001 (ip), vehicle: water) was 102 % of control, the T/C (endpoint: mean survival time, dose: 3.0 mg/kg/injection, schedule: Q01DX001 (ip), vehicle: water) was 104 % of control and 111 % of control and the T/C (endpoint: mean survival time, dose: 6.0 mg/kg/injection, schedule: Q01DX001 (ip), vehicle: water) was 111 % of control. The T/C (endpoint: mean survival time, dose: 12.0 mg/kg/injection, schedule: Q01DX001 (ip), vehicle: water) was 115 % of control and the T/C (endpoint: mean survival time, dose: 48.0 mg/kg/injection, schedule: Q01DX001 (ip), vehicle: water) was 151 % of control.

`CC(C)CC(Br)C(=O)NC(CC(C)C)C(=O)O` (configuration not stated) was tested, and the T/C [2] was 95 % of control, the T/C [3] was 105 % of control and the T/C [4] was 94 % of control.

For `N=C(N)SCSC(=N)N`, the T/C (endpoint: mean survival time, dose: 100.0 mg/kg/injection, schedule: Q04DX003 (ip), vehicle: saline) was 100 % of control and the T/C (endpoint: mean survival time, dose: 200.0 mg/kg/injection, schedule: Q04DX003 (ip), vehicle: saline) was 103 % of control.

In the case of `Cn1c(=O)c2[nH]c(-c3ccc(Cl)cc3)nc2n(C)c1=O`, the T/C (endpoint: mean survival time, dose: 12.5 mg/kg/injection, schedule: Q01DX005 (ip), vehicle: other) was 89 % of control, the T/C (endpoint: mean survival time, dose: 25.0 mg/kg/injection, schedule: Q01DX005 (ip), vehicle: other) was 89 % of control and the T/C (endpoint: mean survival time, dose: 50.0 mg/kg/injection, schedule: Q01DX005 (ip), vehicle: other) was 93 % of control. The T/C (endpoint: mean survival time, dose: 100.0 mg/kg/injection, schedule: Q01DX005 (ip), vehicle: other) was 89 % of control and the T/C (endpoint: mean survival time, dose: 200.0 mg/kg/injection, schedule: Q01DX005 (ip), vehicle: other) was 95 % of control.

For `N#CCC(C#N)N1CCOCC1` (configuration not stated), the T/C [5] was 98 % of control, the T/C [6] was 102 % of control and the T/C [1] was 102 % of control.

With `O=C1OCc2ccc3ccccc3c21` the T/C (endpoint: mean survival time, dose: 50.0 mg/kg/injection, schedule: Q01DX001 (ip), vehicle: saline) was 97 % of control, the T/C (endpoint: mean survival time, dose: 100.0 mg/kg/injection, schedule: Q01DX001 (ip), vehicle: saline) was 89 % of control and the T/C (endpoint: mean survival time, dose: 200.0 mg/kg/injection, schedule: Q01DX001 (ip), vehicle: saline) was 93 % of control. The T/C (endpoint: mean survival time, dose: 400.0 mg/kg/injection, schedule: Q01DX001 (ip), vehicle: saline) was 93 % of control.

`COc1cc(/C=C/[N+](=O)[O-])cc(Br)c1OC` was tested, and the T/C (endpoint: median survival time, dose: 6.25 mg/kg/injection, schedule: Q01DX009 (ip), vehicle: saline with Tween-80) was 103 % of control, the T/C (endpoint: median survival time, dose: 12.5 mg/kg/injection, schedule: Q01DX009 (ip), vehicle: saline with Tween-80) was 96 % of control and the T/C (endpoint: median survival time, dose: 25.0 mg/kg/injection, schedule: Q01DX009 (ip), vehicle: saline with Tween-80) was 109 % of control.

With `COCCNP(=S)(OC)OC` the T/C (endpoint: mean survival time, dose: 100.0 mg/kg/injection, schedule: Q01DX001 (ip), vehicle: saline with Tween-80) was 100 % of control, the T/C (endpoint: mean survival time, dose: 200.0 mg/kg/injection, schedule: Q01DX001 (ip), vehicle: saline with Tween-80) was 101 % of control and the T/C (endpoint: mean survival time, dose: 400.0 mg/kg/injection, schedule: Q01DX001 (ip), vehicle: saline with Tween-80) was 106 % of control.

For `CC[As](=O)(O)c1ccc([N+](=O)[O-])cc1`, the T/C (endpoint: mean survival time, dose: 25.0 mg/kg/injection, schedule: Q01DX001 (ip), vehicle: saline with Tween-80) was 98 % of control and the T/C (endpoint: mean survival time, dose: 50.0 mg/kg/injection, schedule: Q01DX001 (ip), vehicle: saline with Tween-80) was 96 % of control.

For `CCCCCCCCn1nnnc1N`, the T/C (endpoint: mean survival time, dose: 12.5 mg/kg/injection, schedule: Q01DX001 (ip), vehicle: Klucel (hydroxypropylcellulose) (HPC)) was 112 % of control, the T/C (endpoint: mean survival time, dose: 25.0 mg/kg/injection, schedule: Q01DX001 (ip), vehicle: Klucel (hydroxypropylcellulose) (HPC)) was 97 % of control and the T/C (endpoint: mean survival time, dose: 50.0 mg/kg/injection, schedule: Q01DX001 (ip), vehicle: Klucel (hydroxypropylcellulose) (HPC)) was 104 % of control.

Reference: PubChem BioAssay AID256 (DTP/NCI, 2004)
